Experimental data: the supplement of paper PMC10307832

Experiments:
Experiment in all cases: relative viability (nuclei count vs DMSO), 5 days (fraction); higher = more cells survive
Vandetanib + OSI-027 = compound: COc1cc2/c(=N/c3ccc(Br)cc3F)nc[nH]c2cc1OCC1CCN(C)CC1 [Vandetanib] + COc1cccc2cc(-c3nc([C@H]4CC[C@H](C(=O)O)CC4)n4ncnc(N)c34)[nH]c12 [OSI-027] (partner 0.5 µM)
Method in brief: (§1)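 Relative viability equals treated-well nuclei counts divided by vehicle-well nuclei counts. Counts came from 4× images of lung cancer cell lines grown in 1536-well plates for 5 days after pin-tool dosing on the day after seeding. Dosing used one drug alone or a fixed anchor-drug dose plus five library-drug doses (not always all listed) in √10 steps, and values are medians of duplicate plates.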

NVP-TAE684 + Tozasertib = compound: COc1cc(N2CCC(N3CCN(C)CC3)CC2)ccc1Nc1ncc(Cl)c(Nc2ccccc2S(=O)(=O)C(C)C)n1 [NVP-TAE684] + Cc1cc(Nc2cc(N3CCN(C)CC3)nc(Sc3ccc(NC(=O)C4CC4)cc3)n2)n[nH]1 [Tozasertib] (partner 0.1 µM)
Method in brief: as §1

[1] = compound: C1=CC=C2C(=C1)N=C(S2)C(C#N)C3=NC(=NC=C3)NCCC4=CN=CC=C4 + Cc1nc(NC(=O)N2CCC[C@H]2C(N)=O)sc1-c1ccnc(C(C)(C)C(F)(F)F)c1 [Alpelisib] (partner 2 µM)
Method in brief: as §1

CUDC-101 + Tozasertib = compound: C#Cc1cccc(Nc2ncnc3cc(OC)c(OCCCCCCC(=O)NO)cc23)c1 [CUDC-101] + Cc1cc(Nc2cc(N3CCN(C)CC3)nc(Sc3ccc(NC(=O)C4CC4)cc3)n2)n[nH]1 [Tozasertib] (partner 0.1 µM)
Method in brief: as §1

NCI-H1915 was tested, and the relative viability (Vandetanib + OSI-027; first compound 0.02 µM) was 0.599, the relative viability (Vandetanib + OSI-027; first compound 0.06325 µM) was 0.575 and the relative viability (Vandetanib + OSI-027; first compound 0.2 µM) was 0.616. For the same cell line, the relative viability (Vandetanib + OSI-027; first compound 0.6325 µM) was 0.648, the relative viability (Vandetanib + OSI-027; first compound 2 µM) was 0.569 and the relative viability (NVP-TAE684 + Tozasertib; first compound 0.2 µM) was 0.487. For the same cell line, the relative viability (NVP-TAE684 + Tozasertib; first compound 0.6325 µM) was 0.415, the relative viability (NVP-TAE684 + Tozasertib; first compound 2 µM) was 0.492 and the relative viability ([1]; first compound 0.005 µM) was 0.997. The relative viability ([1]; first compound 0.01581 µM) was 1.05, the relative viability ([1]; first compound 0.05 µM) was 1.04 and the relative viability ([1]; first compound 0.1581 µM) was 1.12. It also gave a relative viability ([1]; first compound 0.5 µM) of 1.05, a relative viability (CUDC-101 + Tozasertib; first compound 0.01 µM) of 0.437 and a relative viability (CUDC-101 + Tozasertib; first compound 0.03162 µM) of 0.458. The relative viability (CUDC-101 + Tozasertib; first compound 0.1 µM) was 0.429, the relative viability (CUDC-101 + Tozasertib; first compound 0.3162 µM) was 0.357 and the relative viability (CUDC-101 + Tozasertib; first compound 1 µM) was 0.288.

For NCI-H1944, the relative viability (Vandetanib + OSI-027; first compound 0.02 µM) was 0.398, the relative viability (Vandetanib + OSI-027; first compound 0.06325 µM) was 0.433 and the relative viability (Vandetanib + OSI-027; first compound 0.2 µM) was 0.408. For the same cell line, the relative viability (Vandetanib + OSI-027; first compound 0.6325 µM) was 0.396, the relative viability (Vandetanib + OSI-027; first compound 2 µM) was 0.382 and the relative viability (NVP-TAE684 + Tozasertib; first compound 0.2 µM) was 0.271. For the same cell line, the relative viability (NVP-TAE684 + Tozasertib; first compound 0.6325 µM) was 0.248, the relative viability (NVP-TAE684 + Tozasertib; first compound 2 µM) was 0.225 and the relative viability ([1]; first compound 0.005 µM) was 0.799. For the same cell line, the relative viability ([1]; first compound 0.01581 µM) was 0.86, the relative viability ([1]; first compound 0.05 µM) was 0.771 and the relative viability ([1]; first compound 0.1581 µM) was 0.835. For the same cell line, the relative viability ([1]; first compound 0.5 µM) was 0.803, the relative viability (CUDC-101 + Tozasertib; first compound 0.01 µM) was 0.268 and the relative viability (CUDC-101 + Tozasertib; first compound 0.03162 µM) was 0.213. For the same cell line, the relative viability (CUDC-101 + Tozasertib; first compound 0.1 µM) was 0.275, the relative viability (CUDC-101 + Tozasertib; first compound 0.3162 µM) was 0.236 and the relative viability (CUDC-101 + Tozasertib; first compound 1 µM) was 0.17.

Cell Line NCI-H1975 has a relative viability (Vandetanib + OSI-027; first compound 0.02 µM) of 0.719, a relative viability (Vandetanib + OSI-027; first compound 0.06325 µM) of 0.728 and a relative viability (Vandetanib + OSI-027; first compound 0.2 µM) of 0.77. It also gave a relative viability (Vandetanib + OSI-027; first compound 0.6325 µM) of 0.683, a relative viability (Vandetanib + OSI-027; first compound 2 µM) of 0.612 and a relative viability (NVP-TAE684 + Tozasertib; first compound 0.2 µM) of 1.01. The relative viability (NVP-TAE684 + Tozasertib; first compound 0.6325 µM) was 0.732, the relative viability (NVP-TAE684 + Tozasertib; first compound 2 µM) was 0.206 and the relative viability ([1]; first compound 0.005 µM) was 0.352. For the same cell line, the relative viability ([1]; first compound 0.01581 µM) was 0.669, the relative viability ([1]; first compound 0.05 µM) was 0.62 and the relative viability ([1]; first compound 0.1581 µM) was 0.668. For the same cell line, the relative viability ([1]; first compound 0.5 µM) was 0.403, the relative viability (CUDC-101 + Tozasertib; first compound 0.01 µM) was 0.741 and the relative viability (CUDC-101 + Tozasertib; first compound 0.03162 µM) was 0.717. For the same cell line, the relative viability (CUDC-101 + Tozasertib; first compound 0.1 µM) was 0.843, the relative viability (CUDC-101 + Tozasertib; first compound 0.3162 µM) was 0.837 and the relative viability (CUDC-101 + Tozasertib; first compound 1 µM) was 0.701.

In the case of NCI-H1993, the relative viability (Vandetanib + OSI-027; first compound 0.02 µM) is reported as 0.521, the relative viability (Vandetanib + OSI-027; first compound 0.06325 µM) is reported as 0.573 and the relative viability (Vandetanib + OSI-027; first compound 0.2 µM) is reported as 0.557. The relative viability (Vandetanib + OSI-027; first compound 0.6325 µM) was 0.637, the relative viability (Vandetanib + OSI-027; first compound 2 µM) was 0.552 and the relative viability (NVP-TAE684 + Tozasertib; first compound 0.2 µM) was 0.626. It also gave a relative viability (NVP-TAE684 + Tozasertib; first compound 0.6325 µM) of 0.543, a relative viability (NVP-TAE684 + Tozasertib; first compound 2 µM) of 0.476 and a relative viability ([1]; first compound 0.005 µM) of 0.671. It also gave a relative viability ([1]; first compound 0.01581 µM) of 0.692, a relative viability ([1]; first compound 0.05 µM) of 0.645 and a relative viability ([1]; first compound 0.1581 µM) of 0.652. The relative viability ([1]; first compound 0.5 µM) was 0.747, the relative viability (CUDC-101 + Tozasertib; first compound 0.01 µM) was 0.592 and the relative viability (CUDC-101 + Tozasertib; first compound 0.03162 µM) was 0.517. The relative viability (CUDC-101 + Tozasertib; first compound 0.1 µM) was 0.624, the relative viability (CUDC-101 + Tozasertib; first compound 0.3162 µM) was 0.53 and the relative viability (CUDC-101 + Tozasertib; first compound 1 µM) was 0.502.

NCI-H2009 was tested, and the relative viability (Vandetanib + OSI-027; first compound 0.02 µM) was 0.643, the relative viability (Vandetanib + OSI-027; first compound 0.06325 µM) was 0.6 and the relative viability (Vandetanib + OSI-027; first compound 0.2 µM) was 0.687. It also gave a relative viability (Vandetanib + OSI-027; first compound 0.6325 µM) of 0.644, a relative viability (Vandetanib + OSI-027; first compound 2 µM) of 0.59 and a relative viability (NVP-TAE684 + Tozasertib; first compound 0.2 µM) of 0.77. It also gave a relative viability (NVP-TAE684 + Tozasertib; first compound 0.6325 µM) of 0.704, a relative viability (NVP-TAE684 + Tozasertib; first compound 2 µM) of 0.376 and a relative viability ([1]; first compound 0.005 µM) of 1.13. It also gave a relative viability ([1]; first compound 0.01581 µM) of 1.22, a relative viability ([1]; first compound 0.05 µM) of 1.18 and a relative viability ([1]; first compound 0.1581 µM) of 1.16. For the same cell line, the relative viability ([1]; first compound 0.5 µM) was 1.12, the relative viability (CUDC-101 + Tozasertib; first compound 0.01 µM) was 0.8 and the relative viability (CUDC-101 + Tozasertib; first compound 0.03162 µM) was 0.695. It also gave a relative viability (CUDC-101 + Tozasertib; first compound 0.1 µM) of 0.778, a relative viability (CUDC-101 + Tozasertib; first compound 0.3162 µM) of 0.801 and a relative viability (CUDC-101 + Tozasertib; first compound 1 µM) of 0.639.

For NCI-H2023, the relative viability (Vandetanib + OSI-027; first compound 0.02 µM) was 0.375, the relative viability (Vandetanib + OSI-027; first compound 0.06325 µM) was 0.34 and the relative viability (Vandetanib + OSI-027; first compound 0.2 µM) was 0.429. It also gave a relative viability (Vandetanib + OSI-027; first compound 0.6325 µM) of 0.37, a relative viability (Vandetanib + OSI-027; first compound 2 µM) of 0.41 and a relative viability (NVP-TAE684 + Tozasertib; first compound 0.2 µM) of 0.413. It also gave a relative viability (NVP-TAE684 + Tozasertib; first compound 0.6325 µM) of 0.332, a relative viability (NVP-TAE684 + Tozasertib; first compound 2 µM) of 0.103 and a relative viability ([1]; first compound 0.005 µM) of 0.625. The relative viability ([1]; first compound 0.01581 µM) was 0.659, the relative viability ([1]; first compound 0.05 µM) was 0.649 and the relative viability ([1]; first compound 0.1581 µM) was 0.681. For the same cell line, the relative viability ([1]; first compound 0.5 µM) was 0.404, the relative viability (CUDC-101 + Tozasertib; first compound 0.01 µM) was 0.336 and the relative viability (CUDC-101 + Tozasertib; first compound 0.03162 µM) was 0.337. For the same cell line, the relative viability (CUDC-101 + Tozasertib; first compound 0.1 µM) was 0.363, the relative viability (CUDC-101 + Tozasertib; first compound 0.3162 µM) was 0.328 and the relative viability (CUDC-101 + Tozasertib; first compound 1 µM) was 0.293.

NCI-H2085 gave a relative viability (Vandetanib + OSI-027; first compound 0.02 µM) of 0.797, a relative viability (Vandetanib + OSI-027; first compound 0.06325 µM) of 0.795 and a relative viability (Vandetanib + OSI-027; first compound 0.2 µM) of 0.735. It also gave a relative viability (Vandetanib + OSI-027; first compound 0.6325 µM) of 0.673, a relative viability (Vandetanib + OSI-027; first compound 2 µM) of 0.559 and a relative viability (NVP-TAE684 + Tozasertib; first compound 0.2 µM) of 0.803. The relative viability (NVP-TAE684 + Tozasertib; first compound 0.6325 µM) was 0.781, the relative viability (NVP-TAE684 + Tozasertib; first compound 2 µM) was 0.379 and the relative viability ([1]; first compound 0.005 µM) was 0.87. For the same cell line, the relative viability ([1]; first compound 0.01581 µM) was 0.875, the relative viability ([1]; first compound 0.05 µM) was 0.912 and the relative viability ([1]; first compound 0.1581 µM) was 0.959. For the same cell line, the relative viability ([1]; first compound 0.5 µM) was 0.867, the relative viability (CUDC-101 + Tozasertib; first compound 0.01 µM) was 0.708 and the relative viability (CUDC-101 + Tozasertib; first compound 0.03162 µM) was 0.786. The relative viability (CUDC-101 + Tozasertib; first compound 0.1 µM) was 0.882, the relative viability (CUDC-101 + Tozasertib; first compound 0.3162 µM) was 0.726 and the relative viability (CUDC-101 + Tozasertib; first compound 1 µM) was 0.705.

NCI-H2087 was tested, and the relative viability (Vandetanib + OSI-027; first compound 0.02 µM) was 0.524, the relative viability (Vandetanib + OSI-027; first compound 0.06325 µM) was 0.526 and the relative viability (Vandetanib + OSI-027; first compound 0.2 µM) was 0.581. It also gave a relative viability (Vandetanib + OSI-027; first compound 0.6325 µM) of 0.614, a relative viability (Vandetanib + OSI-027; first compound 2 µM) of 0.513 and a relative viability (NVP-TAE684 + Tozasertib; first compound 0.2 µM) of 0.22. For the same cell line, the relative viability (NVP-TAE684 + Tozasertib; first compound 0.6325 µM) was 0.262, the relative viability (NVP-TAE684 + Tozasertib; first compound 2 µM) was 0.166 and the relative viability ([1]; first compound 0.005 µM) was 1.06. The relative viability ([1]; first compound 0.01581 µM) was 1.14, the relative viability ([1]; first compound 0.05 µM) was 0.979 and the relative viability ([1]; first compound 0.1581 µM) was 1.14. For the same cell line, the relative viability ([1]; first compound 0.5 µM) was 1.05, the relative viability (CUDC-101 + Tozasertib; first compound 0.01 µM) was 0.292 and the relative viability (CUDC-101 + Tozasertib; first compound 0.03162 µM) was 0.243. For the same cell line, the relative viability (CUDC-101 + Tozasertib; first compound 0.1 µM) was 0.233, the relative viability (CUDC-101 + Tozasertib; first compound 0.3162 µM) was 0.195 and the relative viability (CUDC-101 + Tozasertib; first compound 1 µM) was 0.223.
